Experimental data from patent US20250313546A1, “NUCLEIC ACID BINDERS” (UNIVERSITY OF STRATHCLYDE, priority 2022, published 2025).
pIC50: −log10 of the molar value. Values after ≈ are worked out from the molar mass of the structure shown.

What was measured:
[1] = test system: Candida glabrata (ACPF3309); conditions: Nakaseomyces glabratus, read-out: MIC99 Candida glabrata
Description: The Minimum Inhibitory Concentration (MIC, at 99% inhibition) of the compounds was determined using the broth microdilution method as recommended by EUCAST (EUCAST Definitive Document E.DEF 9.3.2, Method for the determination of broth dilution minimum inhibitory concentrations of antifungal agents for conidia forming moulds and EUCAST Definitive Document E.DEF 7.3.2 Method for the determination of broth dilution minimum inhibitory concentrations of antifungal agents for yeasts).

[2] = test system: Staphylococcus aureus (ATCC 43300); assay: Antibacterial MIC, broth microdilution (CLSI); type: cell-based; conditions: for MIC80: Staphylococcus aureus, ATCC43300, read-out: MIC80 S. aureus; for S. aureus Selectivity Indices, Group / S. aureus Selectivity Index (SI): SI, IC50 (μM)/MIC80 (μM), HEK293 cytotoxicity; for S. aureus Selectivity Indices, Group: Quaternary ammoniums; for S. aureus Selectivity Index (SI): numeric value
[3] = test system: C. neoformans (F10025); conditions: Cryptococcus neoformans, read-out: MIC99 C. neoformans
[4] = test system: Genomic double stranded DNA (salmon); assay: Fluorescence intercalator displacement (FID) assay, SYBR-safe probe; conditions: 20 μM compound, 30° C., lower % = stronger binding
Summary of the method: (§1)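 Compound at 20 μM mixed with 3.76 ng/mL polyAU dsRNA or salmon genomic dsDNA and 12500-fold diluted SybrSafe in 1 mM phosphate buffer pH 7.4, then heated to 30 °C and fluorescence read. Reduction is expressed as normalised %, with nucleic acid plus probe as maximum and probe alone as minimum.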

[5] = test system: PolyAU double stranded RNA; assay: as above; conditions: 20 μM compound, 30° C., lower % = stronger binding
Summary of the method: as §1

[6] = test system: T. vaginalis; assay: Trichomonas resorufin assay; type: cell-based; conditions: for pIC50: Trichomonas vaginalis, read-out: IC50 T. vaginalis; for T. vaginalis Selectivity Indices, Group / T. vaginalis Selectivity Index (SI): SI, IC50 (μM)/IC50 (μM), HEK293 cytotoxicity; for T. vaginalis Selectivity Indices, Group: Quaternary ammoniums; for T. vaginalis Selectivity Index (SI): numeric value
[7] = test system: Enterococcus faecalis (ATCC 51299); assay: Antibacterial MIC, broth microdilution (CLSI); type: cell-based; conditions: for MIC80: Enterococcus faecalis, ATCC51299, read-out: MIC80 E. faecalis; for E. faecalis Selectivity Indices, Group: Quaternary ammoniums
[8] = test system: Escherichia coli (ATCC 25922); assay: Antibacterial MIC, broth microdilution (CLSI); type: cell-based; conditions: Escherichia coli, ATCC25922; read-out: MIC80 E. coli
[9] = test system: A. fumigatus A1160 (MFIG001); conditions: Aspergillus fumigatus, read-out: MIC99 A. fumigatus A1160
[10] = SI, IC50 (μM)/MIC80 (μM), HEK293 cytotoxicity

SMILES | MIC99 [1] [µg/mL] | MIC80 [2] [µM] | MIC99 [3] [µg/mL] | % Normalised Fluorescence with gDNA [4] [%] | % Normalised Fluorescence with polyAU RNA [5] [%] | pIC50 [6] | MIC80 [7] [µM] | MIC80 [8] [µM] | MIC99 [9] [µg/mL] | S. aureus Selectivity Indices, Group [2] | S. aureus Selectivity Index (SI) [2] | T. vaginalis Selectivity Indices, Group [6] | T. vaginalis Selectivity Index (SI) [6] | E. faecalis Selectivity Indices, Group [7, 10] | E. faecalis Selectivity Index (SI) ([7]; SI, IC50 (μM)/MIC80 (μM), HEK293 cytotoxicity, numeric value)
CCCCCCC/N=C(/CCNC(=O)c1cc(NC(=O)c2cc(NC(=O)c3ccc(/C=C/c4cnc5ccccc5c4)cc3)cn2C)cn1C)NCCCCCCC [Ia37, N—((Z)-3-(heptylamino)-3-(heptylimino)propyl)-1-methyl-4-(1-methyl-4-(4-((E)-2-(quinolin-3-yl)vinyl)benzamido)-1H-pyrrole-2-carboxamido)-1H-pyrrole-2-carboxamide] | > 50 | 5 to 25 (≈ 3.93 to 19.6 µg/mL) | 25 to 50 (≈ 31.8 to 63.7 µM) | 16 | 68 | 4.30 to 5.30 | 25 to 100 (≈ 19.6 to 78.5 µg/mL) | > 100 | > 50 |  |  |  |  |  | 
CN(C)CCCN(CCCN(C)C)C(=O)c1cc(NC(=O)c2cc(NC(=O)c3ccc(/C=C/c4cnc5ccccc5c4)cc3)cn2C)cn1C [IVa9, (E)-N,N-bis(3-(dimethylamino)propyl)-1-methyl-4-(1-methyl-4-(4-(2-(quinolin-3-yl)vinyl)benzamido)-1H-pyrrole-2-carboxamido)-1H-pyrrole-2-carboxamide] | 25 to 50 (≈ 36.3 to 72.6 µM) | 25 to 100 (≈ 17.2 to 68.9 µg/mL) | 25 to 50 (≈ 36.3 to 72.6 µM) | 3 | 4 |  | > 100 | > 100 | > 50 |  |  |  |  |  | 
CC[N+](C)(C)CCNC(=O)c1cc(NC(=O)c2cc(NC(=O)c3ccc(/C=C/c4cnc5ccccc5c4)cc3)cn2C)cn1C [Ic1, (E)-N-ethyl-N,N-dimethyl-2-(1-methyl-4-(1-methyl-4-(4-(2-(quinolin-3-yl)vinyl)benzamido)-1H-pyrrole-2-carboxamido)-1H-pyrrole-2-carboxamido)ethan-1-aminium] | 5 to 25 | < 5 | 5 to 25 |  |  | > 6.00 | < 5 | > 100 | > 50 |  |  |  |  |  | 
CCCC/N=C(\CCNC(=O)c1cc(NC(=O)c2cc(NC(=O)c3ccc(/C=C/c4ccc(N(C)C)cc4)nc3)cn2C)cn1C)NCCCC [Ia39, N-(5-((5-(((E)-3-(butylamino)-3-(butylimino)propyl)carbamoyl)-1-methyl-1H-pyrrol-3-yl)carbamoyl)-1-methyl-1H-pyrrol-3-yl)-6-((E)-4-(dimethylamino)styryl)nicotinamide] | 25 to 50 (≈ 36 to 72.1 µM) | < 5 | 25 to 50 (≈ 36 to 72.1 µM) | 50 | 43 | 4.30 to 5.30 | 25 to 100 (≈ 17.3 to 69.4 µg/mL) | > 100 | > 50 |  |  |  |  |  | 
Cn1cc(NC(=O)c2cc(NC(=O)c3ccc(/C=C/c4cnc5ccccc5c4)cc3)cn2C)cc1C(=O)NCCC(=N)NCCC1CCOCC1 [Ia44, (E)-N-(3-imino-3-((2-(tetrahydro-2H-pyran-4-yl)ethyl)amino)propyl)-1-methyl-4-(1-methyl-4-(4-(2-(quinolin-3-yl)vinyl)benzamido)-1H-pyrrole-2-carboxamido)-1H-pyrrole-2-carboxamide] | 5 to 25 (≈ 7.13 to 35.7 µM) | 5 to 25 (≈ 3.5 to 17.5 µg/mL) | 25 to 50 (≈ 35.7 to 71.3 µM) | 16 | 19 | 4.30 to 5.30 | 5 to 25 (≈ 3.5 to 17.5 µg/mL) | > 100 | > 50 |  |  |  |  |  | 
CCCCCCC/N=C(\CCNC(=O)c1cc(NC(=O)c2cc(NC(=O)c3ccc(/C=C/c4ccc(N(C)C)cc4)nc3)cn2C)cn1C)NCCCCCCC [Ia33, 6-((E)-4-(dimethylamino)styryl)-N-(5-((5-(((E)-3-(heptylamino)-3-(heptylimino)propyl)carbamoyl)-1-methyl-1H-pyrrol-3-yl)carbamoyl)-1-methyl-1H-pyrrol-3-yl)nicotinamide] | > 50 | 5 to 25 (≈ 3.89 to 19.5 µg/mL) | 25 to 50 (≈ 32.1 to 64.3 µM) | 49 | 24 | 4.30 to 5.30 | 25 to 100 (≈ 19.5 to 77.8 µg/mL) | > 100 | > 50 |  |  |  |  |  | 
CCCCCCCCC[N+](C)(C)CCNC(=O)c1cc(NC(=O)c2cc(NC(=O)c3ccc(/C=C/c4cnc5ccccc5c4)cc3)cn2C)cn1C [Ic8, (E)-N,N-dimethyl-N-(2-(1-methyl-4-(1-methyl-4-(4-(2-(quinolin-3-yl)vinyl)benzamido)-1H-pyrrole-2-carboxamido)-1H-pyrrole-2-carboxamido)ethyl)nonan-1-aminium] | 5 to 25 | < 5 | 25 to 50 |  |  | 4.30 to 5.30 | > 100 | > 100 | > 50 | C (Group C: 5 < SI <= 10) | 6 |  |  |  | 
CCCCCCCCCNC(=N)CCNC(=O)c1cc(NC(=O)c2cc(NC(=O)c3ccc(/C=C/c4cnc5ccccc5c4)cc3)cn2C)cn1C [Ia36, (E)-N-(3-imino-3-(nonylamino)propyl)-1-methyl-4-(1-methyl-4-(4-(2-(quinolin-3-yl)vinyl)benzamido)-1H-pyrrole-2-carboxamido)-1H-pyrrole-2-carboxamide] | 25 to 50 (≈ 35 to 69.9 µM) | 5 to 25 (≈ 3.57 to 17.9 µg/mL) | > 50 | 11 | 4 | 4.30 to 5.30 | 25 to 100 (≈ 17.9 to 71.5 µg/mL) | > 100 | > 50 |  |  |  |  |  | 
CCCCCCCCCCC[N+](C)(C)CCNC(=O)c1cc(NC(=O)c2cc(NC(=O)c3ccc(/C=C/c4cnc5ccccc5c4)cc3)cn2C)cn1C [Ic10, (E)-N,N-dimethyl-N-(2-(1-methyl-4-(1-methyl-4-(4-(2-(quinolin-3-yl)vinyl)benzamido)-1H-pyrrole-2-carboxamido)-1H-pyrrole-2-carboxamido)ethyl)undecan-1-aminium] | 25 to 50 | 5 to 25 | > 50 |  |  | 4.30 to 5.30 | > 100 | > 100 | > 50 |  |  |  |  |  | 
CCCCC[N+](C)(C)CCNC(=O)c1cc(NC(=O)c2cc(NC(=O)c3ccc(/C=C/c4cnc5ccccc5c4)cc3)cn2C)cn1C [Ic4, (E)-N,N-dimethyl-N-(2-(1-methyl-4-(1-methyl-4-(4-(2-(quinolin-3-yl)vinyl)benzamido)-1H-pyrrole-2-carboxamido)-1H-pyrrole-2-carboxamido)ethyl)pentan-1-aminium] | 5 to 25 | < 5 | 5 to 25 |  |  | 5.30 to 6.00 | < 5 | > 100 | > 50 | D (Group D: SI > 10) | 11 | D (Group D: SI > 3) | 4 | C (Group C: 2 < SI <= 5) | 
CCCC[N+](C)(C)CCNC(=O)c1cc(NC(=O)c2cc(NC(=O)c3ccc(/C=C/c4cnc5ccccc5c4)cc3)cn2C)cn1C [Ic3, (E)-N,N-dimethyl-N-(2-(1-methyl-4-(1-methyl-4-(4-(2-(quinolin-3-yl)vinyl)benzamido)-1H-pyrrole-2-carboxamido)-1H-pyrrole-2-carboxamido)ethyl)butan-1-aminium] | 5 to 25 | < 5 | 5 to 25 |  |  | 5.30 to 6.00 | < 5 | > 100 | > 50 |  |  | D (Group D: SI > 3) | 6 | D (Group D: SI > 5) | 11
CCCCCCCCCCCC[N+](C)(C)CCNC(=O)c1cc(NC(=O)c2cc(NC(=O)c3ccc(/C=C/c4cnc5ccccc5c4)cc3)cn2C)cn1C [Ic11, (E)-N,N-dimethyl-N-(2-(1-methyl-4-(1-methyl-4-(4-(2-(quinolin-3-yl)vinyl)benzamido)-1H-pyrrole-2-carboxamido)-1H-pyrrole-2-carboxamido)ethyl)dodecan-1-aminium] | 5 to 25 | 5 to 25 | > 50 |  |  | 4.30 to 5.30 | 25 to 100 | > 100 | > 50 |  |  |  |  |  | 
CCC[N+](C)(C)CCNC(=O)c1cc(NC(=O)c2cc(NC(=O)c3ccc(/C=C/c4cnc5ccccc5c4)cc3)cn2C)cn1C [Ic2, (E)-N,N-dimethyl-N-(2-(1-methyl-4-(1-methyl-4-(4-(2-(quinolin-3-yl)vinyl)benzamido)-1H-pyrrole-2-carboxamido)-1H-pyrrole-2-carboxamido)ethyl)propan-1-aminium] | < 5 | < 5 | 5 to 25 |  |  | > 6.00 | < 5 | > 100 | > 50 |  |  |  |  |  | 
